# Experimental data taken from patent US20130001162A1, “Apparatus, System, and Method for Forward Osmosis in Water Reuse” (priority 2011, published 2013).
# Assay: Rejection of micropollutants by low pressure reverse osmosis (LPRO), diluted DS as feed
# Details: permeate of LPRO at 15 bar
row,"concentration, Permeate LPRO [ng/mL]",SMILES
1,<0.001,C#C[C@]1(O)CC[C@H]2[C@@H]3CCc4cc(O)ccc4[C@H]3CC[C@@]21C [17α-ethynilestradiol]
2,0.02,NC(=O)N1c2ccccc2C=Cc2ccccc21 [Carbamazepine]
3,<0.01,CC(C(=O)O)c1cccc(Oc2ccccc2)c1 (stereo not drawn) [Fenoprofen]
4,<0.01,Cc1ccc(C)c(OCCCC(C)(C)C(=O)O)c1 [Gemfibrozil]
5,<0.01,CC(C(=O)O)c1cccc(C(=O)c2ccccc2)c1 (stereo not drawn) [Ketoprofen]
6,0.08,Cc1ncc([N+](=O)[O-])n1CCO [Metronidazole]

# Further lines, the molecule ahead of its results:
row,SMILES,"concentration, Permeate LPRO [ng/mL]"
1,"C1COCCO1 [1,4-dioxane]",<0.5
2,CC(=O)Nc1ccc(O)cc1 [Acetaminophen],0.31
3,CC(C)(c1ccc(O)cc1)c1ccc(O)cc1 [Bisphenol A],0.058
4,Cn1c(=O)c2c(ncn2C)n(C)c1=O [Caffeine],0.03

# Assay: not given
# Details: stated with the literature report; cited from earlier work
row,SMILES,log D
1,C[C@]12CC[C@@H]3c4ccc(O)cc4CC[C@H]3[C@@H]1CC[C@@H]2O [estradiol],3.94
2,C[C@]12CC[C@@H]3c4ccc(O)cc4CC[C@H]3[C@@H]1CCC2=O [estrone],3.46
